Source: paper PMC10885983 (Antibiotics, 2024)
In brackets after ≈: the same amount, converted by molar mass. Read-outs that look alike come from different tables or passages of the source.

Legend:
S. aureus or MRSA = system: S. aureus or MRSA; design: method as in PMID 23029218; settings: 45 passages of stepwise isolation of S. aureus or MRSA on Luria-Bertani agar with rhodomyrtone; cited from earlier work
[1] = design: method as in PMID 32793420; settings: cited from earlier work
[2] = Bench-top stability in plasma at 25 °C; type: in vitro ADME, rat; settings: for Bench-top stability, Accuracy (%): n = 5
Procedure: The mean recovery was determined at low, medium and high concentrations from five replicates. The long-term storage stability at −80 °C was determined after 15, 30, 60 and 90 d. Bench-top stability testing was also conducted. […] The freeze–thaw cycles were stabilized. Rhodomyrtone was spiked in blank plasma, then stored in a freezer (−20 °C) and thawed every 24 h at room temperature (25 °C) for three cycles prior to extraction.

[3] = Pharmacokinetics of rhodomyrtone in rats after a single oral dose (HPLC-UV plasma analysis, non-compartment model); type: in vivo, Sprague Dawley rats; settings: for AUC(0-t): read-out: AUC0–8; for Tmax / Vd/F: po; for k el: read-out: λz (converted)
Procedure: The HPLC method was used to quantify the concentration of rhodomyrtone in rat plasma after a single oral administration of 50 and 100 mg/kg. Blood samples were collected from tail veins at 0, 0.25, 0.5, 1, 2, 3, 4, 5, 6, 7 and 8 h. Rat plasma samples were prepared as described in Section 3.3. Rhodomyrtone was analyzed using a Bondapak C18 HPLC column at 25 °C. […] After several trials, the mobile phase was optimized to achieve good resolution and symmetric peak shapes for both rhodomyrtone and papaverine. […] An appropriate wavelength at 302 nm gave good sensitivity, with no interfering substance of other components. […] The curve of the rhodomyrtone concentration–time profiles was fitted in a non-compartment pharmacokinetic model due to the whole organism as a single compartment where the drug distributes homogeneously and instantaneously, resulting in a constant volume of distribution. The non-compartment model is multifaceted, and it is acceptable for bioequivalence studies.
An aliquot of each rat plasma sample (100 µL) or validation sample was pipetted into a 1.5 mL microcentrifuge tube, spiked with 25 µL papaverine working standard, then the rat plasma was deproteinized with 75 µL acetonitrile, mixed for 30 s and dropped off 5 min to precipitate the protein. The insoluble content was separated from plasma by centrifugation at 5000× g at 10 °C for 15 min, and we collected the supernatant. All samples were filtered through a 0.22 μm PTFE membrane filter. Subsequently, each sample was transferred into glass insert vials. The HPLC injection volume was 80 µL.
HPLC system consisted of Waters Alliance 2695, a model 2487 UV-Vis detector (Waters Associates, Milford, MA, USA). The maximum UV absorbance of rhodomyrtone was detected from 250 to 310 nm. Therefore, the detection wavelength was set at wavelength 302 nm. The chromatographic data were collected and analyzed using Millenium 32® software. Waters Bondapak C18 column, 5 μm, 4.6 mm × 150 mm, was used to set the standard for HPLC drug analytical measurement procedure. The mobile phase consisted of a mixture of acetonitrile and deionized water (80:20% v/v). The mobile phase was pre-filtered through a 0.20 μm filter and was delivered at a rate of 1 mL/min.
Male Sprague Dawley rats weighing 250–350 g were housed in separate stainless cages under a controlled environment (temperature at 22 ± 2 °C and relative humidity of 55 ± 10% with 12 h light and 12 h dark cycles) at the Southern Laboratory Animal Facility, Faculty of Science, Prince of Songkla University, Thailand. During the experimental period, they received a standard rodent diet with free access to ad libitum drinking water. Rats were divided into two groups, each consisting of 12 animals. Each group received a single oral dose of rhodomyrtone (dissolved in medium-chain triglyceride) at 50 mg/kg body weight (Group 1) and 100 mg/kg body weight (Group 2). The animals were fasted for 10 h prior to the experiment. An initial blood sample was taken by clipping the end of the animals’ tails. Blood samples (500 μL) were collected at time intervals of 0 (predose), 0.25, 0.5, 1, 2, 3, 4, 5, 6, 7 and 8 h. The samples were transferred to a heparinized microcentrifuge tube and centrifuged at 2500× g at 10 °C for 10 min. The plasma samples were stored at −80 °C until HPLC analysis.
The individual plasma concentration–time profiles were visually inspected to determine the maximum plasma concentration (Cmax), the minimum plasma concentration (Cmin) and the time to maximum plasma concentration (tmax). WinNonlin Version 1.1 (Scientific Consulting, Apex, NC, USA) was used to analyze the data and calculate for elimination half-life time (t1/2), elimination rate constant (λz), volume of distribution (Vz/F), area under the concentration–time curve between 0 and 8 h (AUC0–8) and the area under the concentration–time curve between 0 and infinity (AUC0–∞). The results were expressed as mean values ± standard deviation (SD).

MRSA clinical isolated = settings: cited from earlier work
[4] = system: Staphylococcus epidermidis ATCC 35984 (biofilm positive); design: method as in PMID 34067029; settings: cited from earlier work
[5] = system: Staphylococcus aureus clinical isolated; design: method as in PMID 30583020; settings: cited from earlier work
[6] = male, Sprague Dawley, plasma, rat, single oral dose 50 mg/kg, n = 12
[7] = male, Sprague-Dawley, plasma, rat, single oral dose 50 mg/kg, n = 12
[8] = male, Sprague-Dawley, plasma, rat, single oral dose 100 mg/kg, n = 12

**Q.** Which resistance development (S. aureus or MRSA) does the source give for CC(C)CC(=O)c1c(O)cc2c(c1O)[C@@H](CC(C)C)C1=C(O2)C(C)(C)C(=O)C(C)(C)C1=O [rhodomyrtone, Rhodomyrtone] here?
**A.** The resistance development was “not found to be resistant”.

**Q.** And the LD50 [1]?
**A.** The LD50 was 2000 mg/kg.

**Q.** What about the “Bench-top stability, Accuracy (%)” value ([2]; 0 h, 0.1 µg/mL) of the same molecule?
**A.** Its value is 108.10%.

**Q.** What about the “Bench-top stability, Accuracy (%)” value ([2]; 0 h, 100 µg/mL) of the same molecule?
**A.** Its value is 97.34%.

**Q.** And the “Bench-top stability, accuracy (range over all time points)” value ([2]; 0 to 8 h, 0.1 and 100 µg/mL)?
**A.** The value was 92–109%.

**Q.** What about the “Bench-top stability, Accuracy (%)” value ([2]; 1 h, 0.1 µg/mL) of the same molecule?
**A.** Its value is 93.38%.

**Q.** And the “Bench-top stability, Accuracy (%)” value ([2]; 1 h, 100 µg/mL)?
**A.** Its value is 96.58%.

**Q.** What about the “Bench-top stability, Accuracy (%)” value ([2]; 2 h, 0.1 µg/mL) of the same molecule?
**A.** Its value is 108.61%.

**Q.** And the “Bench-top stability, Accuracy (%)” value ([2]; 2 h, 100 µg/mL)?
**A.** The value was 95.97%.

**Q.** And the “Bench-top stability, Accuracy (%)” value ([2]; 4 h, 0.1 µg/mL)?
**A.** Its value is 101.47%.

**Q.** And the “Bench-top stability, Accuracy (%)” value ([2]; 4 h, 100 µg/mL)?
**A.** The value was 94.58%.

**Q.** And the “Bench-top stability, Accuracy (%)” value ([2]; 6 h, 0.1 µg/mL)?
**A.** Its value is 101.24%.

**Q.** What about the “Bench-top stability, Accuracy (%)” value ([2]; 8 h, 0.1 µg/mL) of the same molecule?
**A.** The value was 95.96%.

**Q.** And the half-life ([3]; male, Sprague Dawley, plasma, rat, oral, 50 to 100 mg/kg, read-out: terminal elimination phase half-life (t1/2) (converted))?
**A.** The half-life was ~2.5 h.

**Q.** And the CL/F [3, 6]?
**A.** The CL/F was 266 mL/min/kg.

**Q.** And the AUC(0-t) [3, 6]?
**A.** Its AUC(0-t) is 2680 ± 1090 ng·h/mL.

**Q.** And the half-life ([3]; male, Sprague Dawley, plasma, rat, single oral dose 50 mg/kg, n = 12, read-out: t1/2 (converted))?
**A.** Its half-life is 2.2 ± 0.74 h.

**Q.** What about the CL/F ([3]; male, Sprague Dawley, plasma, rat, single oral dose 100 mg/kg, n = 12) of the same molecule?
**A.** The CL/F was 221 mL/min/kg.

**Q.** What about the half-life ([3]; male, Sprague Dawley, plasma, rat, single oral dose 100 mg/kg, n = 12, read-out: t1/2 (converted)) of the same molecule?
**A.** Its half-life is 2.53 ± 0.92 h.

**Q.** What about the bioavailability ([3]; male, Sprague Dawley, rat, plasma, oral, estimated from SwissADME bioavailability score and AUC, no intravenous data) of the same molecule?
**A.** The bioavailability was ~10%.

**Q.** What about the Tmax ([3]; male, Sprague Dawley, rat, plasma, 50 mg/kg, rat, single oral dose 50 mg/kg, n = 12, mean ± SD, read-out: Tmax) of the same molecule?
**A.** Its Tmax is 1.92 ± 0.29 h.

**Q.** And the Vd/F ([3]; male, Sprague Dawley, rat, plasma, 50 mg/kg, rat, single oral dose 50 mg/kg, n = 12, read-out: Vz/F)?
**A.** The Vd/F was 48.5 ± 16.9 L/kg.

**Q.** And the Vd/F ([3]; male, Sprague Dawley, rat, plasma, 100 mg/kg, rat, oral, 50 and 100 mg/kg doses (not significantly different), read-out: apparent total volume of distribution (Vz/F))?
**A.** Its Vd/F is ~50 L/kg.

**Q.** What about the Tmax ([3]; male, Sprague Dawley, rat, plasma, 100 mg/kg, rat, oral, both 50 and 100 mg/kg doses, read-out: time to maximum plasma concentration (Tmax)) of the same molecule?
**A.** The Tmax was 2 h.

**Q.** And the Tmax ([3]; male, Sprague Dawley, rat, plasma, 100 mg/kg, rat, single oral dose 100 mg/kg, n = 12, mean ± SD, read-out: Tmax)?
**A.** Its Tmax is 2 h.

**Q.** What about the Vd/F ([3]; male, Sprague Dawley, rat, plasma, 100 mg/kg, rat, single oral dose 100 mg/kg, n = 12, read-out: Vz/F) of the same molecule?
**A.** The Vd/F was 46.6 ± 13.8 L/kg.

**Q.** What about the concentration at 8 h ([3]; male, Sprague Dawley, rat plasma, oral 50 mg/kg, 8 h) of the same molecule?
**A.** Its concentration at 8 h is ~100 ng/mL.

**Q.** And the Cmax ([3]; male, Sprague Dawley, rat plasma, single oral dose 50 mg/kg, n = 12)?
**A.** Its Cmax is 570 ± 120 ng/mL.

**Q.** And the Cmax ([3]; male, Sprague Dawley, rat plasma, single oral dose 100 mg/kg, n = 12)?
**A.** Its Cmax is 1310 ± 200 ng/mL.

**Q.** And the AUC(0-inf) [3, 7]?
**A.** The AUC(0-inf) was 3410 ± 1040 ng·h/mL.

**Q.** And the k el [3, 7]?
**A.** Its k el is 0.000139 s⁻¹.

**Q.** And the AUC(0-inf) [3, 8]?
**A.** The AUC(0-inf) was 7820 ± 1530 ng·h/mL.

**Q.** And the AUC(0-t) [3, 8]?
**A.** The AUC(0-t) was 6650 ± 1130 ng·h/mL.

**Q.** What about the k el [3, 8] of the same molecule?
**A.** Its k el is 8.33e-05 s⁻¹.

**Q.** And the Cmin ([3]; rat plasma, single oral dose 50 mg/kg, n = 12)?
**A.** The Cmin was 140 ± 60 ng/mL.

**Q.** And the Cmin ([3]; rat plasma, single oral dose 100 mg/kg, n = 12)?
**A.** The Cmin was 310 ± 90 ng/mL.

**Q.** And the “time of rhodomyrtone concentrations above MIC (0.5–1 μg/mL) of most staphylococcal isolates” value ([3]; rat, oral 50 mg/kg)?
**A.** The value was “approximately 4 h”.

**Q.** What about the “Cmax relative to the MBCs for MRSA (0.03–1.00 μg/mL)” value ([3]; rat, oral 100 mg/kg) of the same molecule?
**A.** The value was 2–3 times.

**Q.** And the “time of rhodomyrtone concentrations above MIC (0.5–1 μg/mL) of most staphylococcal isolates” value ([3]; rat, oral 100 mg/kg)?
**A.** The value was ~8 h.

**Q.** What about the “AUC0–8 as share of AUC0–∞” value ([3]; rat, oral, 8 h sampling time) of the same molecule?
**A.** Its value is “about 80%”.

**Q.** And the MIC (MRSA clinical isolated)?
**A.** Its MIC is 0.39 to 0.78 µg/mL.

**Q.** And the MIC [4]?
**A.** Its MIC is 0.39 µg/mL (≈ 0.881 µM).

**Q.** What about the MIC [5] of the same molecule?
**A.** Its MIC is 0.5 to 2 µg/mL.
